Experimental data published in patent US10966426B2, “Herbicidal compositions comprising phenylpyrimidines” (BASF SE, priority 2016, dated 2021).
Values joined by “and” are separate entries in the source; they are usually repeats but may differ in a detail not shown here. Equal values may be shown once.

Experiments:
Format in all cases: in vivo
[1] = system: Matricaria chamomilla; experiment: greenhouse post-emergence treatment, MATCH; settings: MATCH
Procedure, shortened: (§1)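 Post-emergence greenhouse spray on 3–15 cm plants, sown direct or transplanted a few days before treatment. Scored visually on a 0–100 scale after 2 to 4 weeks; expected additive effect computed by Colby: E=X+Y−(X·Y/100).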

[2] = system: Setaria viridis; experiment: greenhouse post-emergence treatment, SETVI; settings: SETVI
Procedure, shortened: (§2)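 Scoring used a 0 to 100 scale, with 100 denoting no emergence or full destruction of at least the above-ground parts, recorded within a 2 to 4 week test period. Test plants grew in loamy sand containing about 3.0% humus at 10-25° C. or 20-35° C., after direct sowing or transplanting, and received water-based treatments post-emergence.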

[3] = system: Echinocloa crus-galli; experiment: greenhouse post-emergence treatment, ECHCG; settings: ECHCG
Procedure, shortened: as §1

[4] = system: Digitaria sanguinalis; experiment: greenhouse post-emergence treatment, DIGSA; settings: DIGSA
Procedure, shortened: as §2

[5] = system: Bromus sterilis; experiment: greenhouse post-emergence treatment, BROST
Procedure, shortened: as §2

[6] = system: Brachiaria decumbens; experiment: greenhouse post-emergence treatment, BRADC; settings: BRADC
Procedure, shortened: (§3)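 Greenhouse; post-emergence spray at 3–15 cm; aqueous EC formulation; 2–4 weeks; 0–100 visual score.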

[7] = system: Ambrosia elatior; experiment: greenhouse post-emergence treatment, AMBEL; settings: 20 DAT, AMBEL
Procedure, shortened: as §3

[8] = Ex. 5 solo, 62.5 gai/ha, 20 DAT
[9] = Ex. 5 solo, 62.5 gai/ha, 21 DAT
[10] = Table X8, 20 DAT, solo Ex. 5 250 gai/ha

## O=C(O)c1nc(C2CC2)ncc1-c1ccccc1Cl [Ex. 5]
[1]; 250 gai/ha, 20 DAT, Table X5
  % activity, solo application: 10%
[1]; [8]
  % activity: 40%
[1]; [9]
  % activity: 30%
[1]; Ex. 5 solo, 125 gai/ha, 21 DAT
  % activity: 30%
[1]; Ex. 5 solo, 250 gai/ha, 21 DAT
  % activity: 60%
[1]; 20 DAT, solo Ex. 5 125 gai/ha
  % activity: 40%
[1]; 20 DAT, solo Ex. 5 250 gai/ha
  % activity: 30%
[1]; 20 DAT, solo Ex. 5 250 gai/ha (Table X66)
  % activity: 30%
[1]; 21 DAT, solo Ex. 5 125 gai/ha
  % activity: 30%
[1]; solo Ex. 5 62.5 gai/ha, 20 DAT
  % activity: 10% and 0%
[1]; solo Ex. 5 250 gai/ha, 21 DAT
  % activity: 30%
[1]; solo, 62.5 gai/ha, 20 DAT
  % activity: 20%
[1]; solo, 125 gai/ha, 20 DAT
  % activity: 40% and 20%
[1]; solo, 250 gai/ha, 20 DAT
  % activity: 40% and 45%
[2]; 62.5 gai/ha, 20 DAT, Table X3
  % activity, solo application: 35%
[2]; 250 gai/ha, 20 DAT, Table X3
  % activity, solo application: 60%
[2]; 250 gai/ha, 20 DAT, Table X4
  % activity, solo application: 50%
[2]; 250 gai/ha, 20 DAT, Table X7
  % activity, solo application: 60%
[2]; [8]
  % activity: 55%
[2]; 20 DAT, solo Ex. 5 62.5 gai/ha
  % activity: 30%
[2]; 20 DAT, solo Ex. 5 125 gai/ha
  % activity: 40%
[2]; 21 DAT, solo Ex. 5 125 gai/ha
  % activity: 70%
[2]; solo Ex. 5 62.5 gai/ha, 20 DAT
  % activity: 35% and 30% and 48%
[2]; solo Ex. 5 62.5 gai/ha, 21 DAT
  % activity: 35%
[2]; solo Ex. 5 250 gai/ha, 20 DAT
  % activity: 65%
[2]; Table X8, 20 DAT, solo Ex. 5 125 gai/ha
  % activity: 30%
[2]; [10]
  % activity: 30%
[2]; solo, 62.5 gai/ha, 20 DAT
  % activity: 20% and 35%
[2]; solo, 125 gai/ha, 20 DAT
  % activity: 40%
[2]; solo, 250 gai/ha, 20 DAT
  % activity: 50%
[3]; 62.5 gai/ha, 20 DAT, Table X3
  % activity, solo application: 65%
[3]; solo Ex. 5 125 gai/ha, 21 DAT
  % activity: 65%
[3]; solo Ex. 5 250 gai/ha, 21 DAT
  % activity: 65%
[3]; Table X12, 20 DAT, solo Ex. 5 125 gai/ha
  % activity: 65%
[4]; 62.5 gai/ha, 20 DAT, Table X3
  % activity, solo application: 30%
[4]; 125 gai/ha, 20 DAT, Table X4
  % activity, solo application: 50%
[4]; 125 gai/ha, 20 DAT, Table X5
  % activity, solo application: 65%
[4]; 250 gai/ha, 20 DAT, Table X4
  % activity, solo application: 70%
[4]; 250 gai/ha, 20 DAT, Table X5
  % activity, solo application: 70%
[4]; 21 DAT, solo Ex. 5 125 gai/ha
  % activity: 60%
[4]; 21 DAT, solo Ex. 5 250 gai/ha
  % activity: 80%
[4]; solo Ex. 5 62.5 gai/ha, 20 DAT
  % activity: 35%
[4]; solo Ex. 5 125 gai/ha, 21 DAT
  % activity: 45%
[4]; solo Ex. 5 250 gai/ha, 21 DAT
  % activity: 65%
[4]; solo Ex. 5 500 gai/ha, 20 DAT, 2nd series of rows
  % activity: 75%
[4]; [9]
  % activity: 35%
[4]; [10]
  % activity: 65%
[4]; solo, 62.5 gai/ha, 20 DAT
  % activity: 35%
[4]; solo, 125 gai/ha, 20 DAT
  % activity: 50%
[5]; 250 gai/ha, 20 DAT, BROST, Table X3
  % activity, solo application: 80%
[5]; BROST, 20 DAT, solo Ex. 5 62.5 gai/ha
  % activity: 35%
[5]; BROST, 20 DAT, solo Ex. 5 250 gai/ha
  % activity: 80%
[5]; BROST, solo Ex. 5 62.5 gai/ha, 20 DAT
  % activity: 30% and 53%
[5]; BROST, solo Ex. 5 125 gai/ha, 20 DAT
  % activity: 65% and 73%
[5]; BROST, solo Ex. 5 250 gai/ha, 20 DAT
  % activity: 70% and 85%
[5]; BROST, solo Ex. 5 500 gai/ha, 20 DAT
  % activity: 90%
[5]; solo, BROST, 125 gai/ha, 20 DAT
  % activity: 65%
[5]; solo, BROST, 250 gai/ha, 20 DAT
  % activity: 70% and 80%
[6]; 125 gai/ha, 20 DAT, Table X5
  % activity, solo application: 50%
[6]; 125 gai/ha, 20 DAT, Table X7
  % activity, solo application: 65%
[6]; 250 gai/ha, 20 DAT, Table X3
  % activity, solo application: 60%
[6]; 20 DAT, solo Ex. 5 62.5 gai/ha
  % activity: 35%
[6]; 20 DAT, solo Ex. 5 125 gai/ha
  % activity: 40%
[6]; 20 DAT, solo Ex. 5 125 gai/ha (Table X66)
  % activity: 40%
[6]; 20 DAT, solo Ex. 5 250 gai/ha
  % activity: 60%
[6]; 21 DAT, solo Ex. 5 125 gai/ha
  % activity: 60%
[6]; 21 DAT, solo Ex. 5 250 gai/ha
  % activity: 70%
[6]; solo Ex. 5 62.5 gai/ha, 20 DAT
  % activity: 30% and 45%
[6]; solo Ex. 5 125 gai/ha, 20 DAT
  % activity: 50%
[6]; solo Ex. 5 250 gai/ha, 20 DAT
  % activity: 60%
[6]; solo, 62.5 gai/ha, 20 DAT
  % activity: 45%
[6]; solo, 250 gai/ha, 20 DAT
  % activity: 60%
[7]; 125 gai/ha, Table X5
  % activity, solo application: 80%
[7]; solo Ex. 5 62.5 gai/ha
  % activity: 80%
[7]; solo Ex. 5 125 gai/ha
  % activity: 80%
[7]; solo, 62.5 gai/ha
  % activity: 85%
